According to patent US20060057673A1, “Epitope analogs” (priority 2004, published 2006):
Where a SMILES comes first, the peptide text is derived from it. [ ]: non-standard residue; d: D form. Cha = N[C@@H](CC1CCCCC1)C(=O)O

Tests used:
HLA-A*0201 [1] = biological target: T1, HLA-A*0201 (Homo sapiens, UniProt P04439, D140Y/D185E/D98H/E176V/E277Q/G131W/G231S/I119V/I121R/I166T/I218V/L300P/L318F/N151K/N90K/P208A/P217A/Q86G/Q94H/R138H/R169H/T345S); assay: Peptide binding using T2 cells; design: endogenous in cells; host or cells: T2 cells; conditions: T2 cells pulsed overnight at 37° C.; peptide concentration giving 50% of saturation signal; N/B printed, not defined
[2] = system: target cells loaded with native PRAME425-433 peptide; assay: In vivo cytotoxicity against native PRAME peptide coated splenocytes (CFSE); design: species or system HHD transgenic mice; conditions: plasmid prime, peptide boost
HLA-A*0201 [3] = biological target: T1, HLA-A*0201; assay: iTopia binding assay (% binding); conditions: % binding compared to positive control melan-A26-35 A27L
From the text: Avidin-coated microtiter plates containing class I monomer loaded with a so-called placeholder peptide were used to evaluate peptide binding, affinity and off-rate. The monomer-coated plates were supplied as part of the iTopia Epitope Discovery System Kit (Beckman Ciulter, Inc., San Diego, Calif., USA). Assay buffers, anti-MHC-FITC mAb and beta2-microglobulin and control peptides were also supplied with the kits.
This assay measures the ability of individual peptides to bind HLA molecules under standardized optimal binding conditions. Monomer-coated plates were first stripped, releasing the placeholder peptide and leaving only the MHC heavy chain bound to the plate. Test peptides were then introduced under optimal folding conditions, along with the anti-MRC-FITC mAb. Plates were incubated for 18hrs at 21° C. The anti-MHC-FITC mAb binds preferentially to a refolded MHC complex. Therefore, the fluorescence intensity resulted from each peptide was related to the peptide's ability to form complex with MHC molecule. Each peptide's binding was evaluated relative to the positive control peptide provided in the kit, and the results were expressed ‘% binding’.

Half-maximal Binding (mM) (HLA-A*0201 [1]) | Compound | In vivo cytotoxicity against native PRAME epitope [2] | % binding relative to native PRAME425-433 (HLA-A*0201 [3])
N/B | CC[C@H](C)[C@H](NC(=O)[C@H](CCCCN)NC(=O)[C@H](CCC(=O)O)NC(=O)[C@H](CO)NC(=O)[C@H](C)NC(=O)[C@@H](N)CC1CCCCC1)C(=O)N[C@@H](Cc1ccccc1)C(=O)N[C@@H](Cc1ccc(O)cc1)C(=O)N[C@H](C(=O)O)C(C)C [SSX2 41-49 (K41(Cha))] (H-[Cha]ASEKIFYV-OH) |  | 
 | Phe P1 analog: PRAME425-433 (SLLQHLIGL) analog, Phe for the Ser at the P1 position (FLLQHLIGL) | capable of expanding the immunity against the native epitope | exceeded that range on the high side
N/B | CC[C@H](C)[C@H](NC(=O)[C@H](CCCCN)NC(=O)[C@H](CCC(=O)O)NC(=O)[C@H](CO)NC(=O)[C@H](Cc1cccc2ccccc12)NC(=O)[C@@H](N)CCCCN)C(=O)N[C@@H](Cc1ccccc1)C(=O)N[C@@H](Cc1ccc(O)cc1)C(=O)N[C@H](C(=O)O)C(C)C [SSX2 41-49 (A42(Nal-1)), KNal-1SEKIFYV] |  | 
